Measurements taken from PMC10058761, “Heart-Type Fatty Acid Binding Protein Binds Long-Chain Acylcarnitines and Protects against Lipotoxicity” (International Journal of Molecular Sciences, 2023).
Values joined by “and” are separate entries in the source; they are usually repeats but may differ in a detail not shown here. Equal entries are not always repeated.

Legend:
human FABP3 [1] = target: T1, human FABP3 (Homo sapiens, UniProt P05413); test: Ligand binding by NMR (2D 1H-15N HSQC chemical shift perturbations); conditions: KPi buffer pH 7.6
T1 construct: His-tag (N); TEV cleavage site (N); made in house; host or cells: E. coli BL21(DE3)
Procedure: NMR spectra were acquired on the 600 MHz Bruker Avance Neo spectrometer (Bruker Biospin GmbH, Rheinstetten, Germany) equipped with a 5-mm quadruple-resonance CryoProbe (QCI) with z-gradients. […] All experiments were performed in KPi buffer without or with TX and with the addition of 7% (v/v) D2O, 0.03% (v/v) NaN3, and 0.01% (v/v) SigmaFAST EDTA-free protease inhibitor cocktail to prevent protein degradation. The amount of organic solvent (ethanol or DMSO-d6) was below 2% (v/v) in each experiment.
3D HNCA, 3D HNCO, 3D HN(CA)CO, and 3D CBCA(CO)NH spectra were acquired for the backbone assignment. 3D [^1H,^1H]-nuclear Overhauser spectroscopy (NOESY)-^15N-heteronuclear single-quantum correlation (HSQC) spectrum was acquired using a mixing time of 100 ms and also used in the backbone assignment. 2D ^1H-^15N HSQC spectra were acquired for evaluation of the CSPs caused by the lipid binding. Chemical shifts were referenced internally to the residual water signal at 4.70 ppm relative to the 4,4-dimethyl-4-silapentane-1-sulfonic acid (DSS). […] Other complexes were analyzed by analogy and with the help of 3D [^1H-^1H]-NOESY-^15N-HSQC. All spectra were processed in TopSpin v. 4.1.1. (Bruker, Billerica, MA, USA) and analyzed in CARA 1.9.1. software. Residue-specific protein backbone amide assignment was performed based on the published chemical shifts. CSPs, Δδ, were calculated using Equation (1) with the scaling factor, α, which was set to 0.1 [67, 68]. (1) Δδ=1/2[δH2+α·δN^2],

human FABP3 [2] = target: T1, human FABP3; test: ITC assay of ligand binding to apo-FABP3; conditions: for binding to FABP3 (binding heat effects) by ITC / Kd / ΔG / ΔH / −TΔS / N (stoichiometry): KPi pH 7.6, 25 °C; for N (stoichiometry): protein assumed 100% active and delipidated
Procedure: ITC experiments were carried out on the MicroCal™ iTC200 instrument (Malvern Instruments Ltd., Malvern, UK). Experiments were performed in KPi buffer without and with 0.1% (v/v) TX supplement. […] Experiments for the determination of the ΔCp were performed at three different temperatures: 16, 25, and 37 °C. […] Every titration started with a small 0.3 μL injection introduced to compensate for the diffusion effects. One of the following injection profiles was chosen based on the activity of the ligand and binding heat released: 1.2 μL × 32 or 1.5 μL × 26—all with 120 s time spacing between every injection and 600 rpm. Each ligand was titrated at least two times. The reference baseline consisting of small peaks of identical size (titration of the corresponding ligand into the buffer) was subtracted from the data before fitting to correct for the heat of the ligand dilution. The first injection was excluded from each dataset. The final data were fitted to a theoretical titration curve (one set of sites fitting model) using MicroCal Origin 7 SR4 software (OriginLab, Northampton, MA, USA).

human FABP3 [3] = target: T1, human FABP3; test: ITC competitive binding experiments (FABP3 pre-saturated with a competing ligand); conditions: FABP3 saturated with C18:1(n-9)t-carnitine, titrated with the FA, 25 °C
Procedure: ITC experiments were carried out on the MicroCal™ iTC200 instrument (Malvern Instruments Ltd., Malvern, UK). Experiments were performed in KPi buffer without and with 0.1% (v/v) TX supplement. All titrations except for the determination of the heat capacity, ΔCp, were performed at 25 °C using 20–120 μM protein. Experiments for the determination of the ΔCp were performed at three different temperatures: 16, 25, and 37 °C. 280 μL of the protein solution in the sample cell were titrated with the ligand solution diluted to 200–1200 μM depending on the enzyme concentration (to achieve a 1:10 or 1:5 ratio). Every titration started with a small 0.3 μL injection introduced to compensate for the diffusion effects. One of the following injection profiles was chosen based on the activity of the ligand and binding heat released: 1.2 μL × 32 or 1.5 μL × 26—all with 120 s time spacing between every injection and 600 rpm. Each ligand was titrated at least two times. The reference baseline consisting of small peaks of identical size (titration of the corresponding ligand into the buffer) was subtracted from the data before fitting to correct for the heat of the ligand dilution. The first injection was excluded from each dataset. […]

human FABP3 [4] = target: T1, human FABP3; test: ITC determination of heat capacity change at 16, 25 and 37 °C; assay type: binding; conditions: ΔH at 16, 25, 37 °C, linear regression
Excerpt: Heat capacity changes, ΔCp, are important indicators of the structural changes during ligand-to-protein binding in various environmental conditions and may reflect changes in the static and dynamic properties of the protein [33, 34]. Moreover, it may represent interactions with extra supplements, such as salts and detergents, and larger processes, such as changes in protein folding, solvent-accessible surface area (SASA), or protonation states within the active site. […] Thermodynamic parameters for the remaining LCFAs were determined in the KPi + TX buffer, while LCACs were tested in the KPi buffer without any additive. Figure 7 represents an example of the overlays of the ITC experiments for C18:1(n-9)c and the corresponding LCAC performed at the following temperatures: 16, 25, and 37 °C.
ITC experiments were carried out on the MicroCal™ iTC200 instrument (Malvern Instruments Ltd., Malvern, UK). Experiments were performed in KPi buffer without and with 0.1% (v/v) TX supplement. All titrations except for the determination of the heat capacity, ΔCp, were performed at 25 °C using 20–120 μM protein. Experiments for the determination of the ΔCp were performed at three different temperatures: 16, 25, and 37 °C. 280 μL of the protein solution in the sample cell were titrated with the ligand solution diluted to 200–1200 μM depending on the enzyme concentration (to achieve a 1:10 or 1:5 ratio). Every titration started with a small 0.3 μL injection introduced to compensate for the diffusion effects. One of the following injection profiles was chosen based on the activity of the ligand and binding heat released: 1.2 μL × 32 or 1.5 μL × 26—all with 120 s time spacing between every injection and 600 rpm. Each ligand was titrated at least two times. The reference baseline consisting of small peaks of identical size (titration of the corresponding ligand into the buffer) was subtracted from the data before fitting to correct for the heat of the ligand dilution. The first injection was excluded from each dataset. The final data were fitted to a theoretical titration curve (one set of sites fitting model) using MicroCal Origin 7 SR4 software (OriginLab, Northampton, MA, USA).

[5] = KPi without TX, Competitive Binding model
[6] = KPi without TX, One Set of Sites model
[7] = KPi + 0.10% TX, Competitive Binding model
[8] = KPi + 0.10% TX, One Set of Sites model

T1 sequence (P05413 whole entry): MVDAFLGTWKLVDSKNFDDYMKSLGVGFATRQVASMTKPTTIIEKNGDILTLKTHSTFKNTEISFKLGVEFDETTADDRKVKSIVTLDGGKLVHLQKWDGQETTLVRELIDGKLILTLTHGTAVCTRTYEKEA

Compound	binding to FABP3 by NMR (CSPs in 2D 1H-15N HSQC) (human FABP3 [1])	Kd (human FABP3 [2]; with 0.1% TX) [µM]	ΔG (human FABP3 [2]; with 0.1% TX) [kJ/mol]	ΔH (human FABP3 [2]; with 0.1% TX) [kJ/mol]	−TΔS (human FABP3 [2]; with 0.1% TX) [kJ/mol]	N (stoichiometry) (human FABP3 [2]; with 0.1% TX)	Kd (human FABP3 [2]; without TX) [µM]	ΔG (human FABP3 [2]; without TX) [kJ/mol]	ΔH (human FABP3 [2]; without TX)	−TΔS (human FABP3 [2]; without TX) [kJ/mol]	N (stoichiometry) (human FABP3 [2]; without TX)	further results
CCCCCCCCCCCC(=O)O[C@H](CC(=O)O)C[N+](C)(C)C [C12:0-carnitine]	did not bind	–	–	–	–	–	–	–	–	–	–	binding to FABP3 (binding heat effects) by ITC (human FABP3 [2]; without TX): no binding
CCCCCCCC(=O)O [C8:0, caprylate]	–	1.109 ± 0.001	-34 ± 0.042	-52.7 ± 1.3	18.8 ± 1.3	1.0	1.86 ± 0.05	-32.7 ± 0.084	-33.5 ± 0.38 kJ/mol	0.795 ± 0.29	1.0	–
CCCCCCCCCCCC(=O)O [C12:0, laurate]	–	0.57 ± 0.06	-35.7 ± 0.25	-60.7 ± 1.7	25.1 ± 1.3	1.0	0.2 ± 0.02	-38.2 ± 0.25	-36 ± 0.33 kJ/mol	-2.22 ± 0.084	1.0	-TΔS (human FABP3 [3]; [5]): -1.7 ± 4.6 kJ/mol; ΔG (human FABP3 [3]; [5]): -52.3 ± 3.8 kJ/mol; ΔH (human FABP3 [3]; [5]): -50.6 ± 0.84 kJ/mol; -TΔS (human FABP3 [3]; [6]): -4.18 ± 0.42 kJ/mol; Kd (human FABP3 [3]; [6]): 0.36 ± 0.03 µM; ΔG (human FABP3 [3]; [6]): -36.8 ± 0.17 kJ/mol; ΔH (human FABP3 [3]; [6]): -32.6 ± 0.84 kJ/mol; ΔCp (human FABP3 [4]; KPi without TX): −0.33 kcal∙mol^−1∙K^−1 and −0.33 ± 0.01 kcal∙mol^−1∙K^−1
CCCCCCCCCC(=O)O [C10:0, caprate]	–	0.56 ± 0.02	-35.71 ± 0.029	–	19.7 ± 1.3	1.0	0.252 ± 0.004	-37.7 ± 0.042	-46.4 kJ/mol and -46.4 ± 0.33 kJ/mol	8.7 ± 0.33	1.0	ΔG (human FABP3 [3]; [5]): -49.4 ± 0.42 kJ/mol; ΔH (human FABP3 [3]; [5]): -59 ± 0.84 kJ/mol; -TΔS (human FABP3 [3]; [6]): 4.18 ± 0.42 kJ/mol; Kd (human FABP3 [3]; [6]): 0.36 ± 0.07 µM; ΔG (human FABP3 [3]; [6]): -36.8 ± 0.42 kJ/mol; ΔH (human FABP3 [3]; [6]): -41 ± 0.84 kJ/mol
C[N+](C)(C)C[C@H](O)CC(=O)[O-] [carnitine, L-carnitine]	neither bind nor interact	–	–	–	–	–	–	–	–	–	–	–
CCCCCCCCCCCCCC(=O)O [C14:0, myristate]	–	0.3 ± 0.1	-37.2 ± 0.84	-45.6 ± 1.7	7.95 ± 0.84	1.0	–	–	–	–	–	–
CCCCCCCCCCCCCCCCCC(=O)O [C18:0, stearate]	–	0.7 ± 0.1	-34.9 ± 0.17	-26.8 ± 1.7	-8.37 ± 1.7	1.0	–	–	–	–	–	–
CCCCCCCCCCCCCCCC(=O)SCCNC(=O)CCNC(=O)[C@H](O)C(C)(C)COP(=O)(O)OP(=O)(O)OC[C@H]1O[C@@H](n2cnc3c(N)ncnc32)[C@H](O)[C@@H]1OP(=O)(O)O [C16:0-CoA, palmitoyl-CoA]	strong CSPs indicative of binding	–	–	–	–	–	8.9 ± 1.2	-28.9 ± 0.33	-21.1 ± 0.38 kJ/mol	-7.78 ± 0.042	1.0	effect of detergent addition on binding to FABP3 (ITC) (human FABP3 [2]; KPi with TX detergent): completely blocked the binding
Triton™ X-100 [TX]	did not interact with the FABP3 core structure	–	–	–	–	–	–	–	–	–	–	–
CCCCCCCCCCCCCCCC(=O)O [C16:0, palmitate]	–	–	-39.1 ± 0.29	-36.4 ± 3.8	-2.5 ± 3.3	1.0	–	–	–	–	–	-TΔS (human FABP3 [3]; [7]): 0.84 ± 0.42 kJ/mol; ΔG (human FABP3 [3]; [7]): -48.62 kJ/mol; ΔH (human FABP3 [3]; [7]): -49.25 kJ/mol; -TΔS (human FABP3 [3]; [8]): -4.77 ± 0.21 kJ/mol; ΔG (human FABP3 [3]; [8]): -36.1 ± 0.042 kJ/mol; ΔH (human FABP3 [3]; [8]): -31.3 ± 0.21 kJ/mol
CCCCCCCCCCCCCC(=O)O[C@H](CC(=O)O)C[N+](C)(C)C.[Cl-] [C14:0-carnitine, miristoylcarnitine]	strong CSPs indicative of binding	–	–	–	–	–	11.3	-28	-4.6 kJ/mol	-23.8	0.5	–
CC/C=C\C/C=C\C/C=C\C/C=C\C/C=C\CCCC(=O)O [C20:5(n-3)c, EPA]	–	1.6 ± 0.2	-33.1 ± 0.29	-72.8 ± 2.9	39.7 ± 3.3	1.0	–	–	–	–	–	ΔCp (human FABP3 [4]; KPi with 0.1% TX): −0.37 ± 0.03 kcal∙mol^−1∙K^−1
CCCCCCCC/C=C\CCCCCCCC(=O)O [C18:1(n-9)c, oleate]	–	0.29 ± 0.03	-37.4 ± 0.25	-41.8 ± 1.7	4.6 ± 2.1	1.0	–	–	–	–	–	ΔCp (human FABP3 [4]; KPi with 0.1% TX): −0.29 ± 0.06 kcal∙mol^−1∙K^−1
CCCCCCCC(=O)O[C@H](CC(=O)O)C[N+](C)(C)C.[Cl-] [C8:0-carnitine]	did not bind	–	–	–	–	–	–	–	–	–	–	binding to FABP3 (binding heat effects) by ITC (human FABP3 [2]; without TX): no binding
CCCCCCCC/C=C/CCCCCCCC(=O)O [C18:1(n-9)t, elaidate]	–	0.21 ± 0.02	-38.2 ± 0.25	-33.5 ± 3.8	-4.6 ± 3.8	1.0	–	–	–	–	–	ΔCp (human FABP3 [4]; KPi with 0.1% TX): −0.15 ± 0.02 kcal∙mol^−1∙K^−1
